Some test systems named below: HCT-116 colon; HOP-62 NSCLC; OVCAR-8 ovarian; U251 CNS; RXF 393 renal; SF-295 CNS; NCI-H460 lung; SNB-75 CNS; UACC-257 melanoma; SR leukemia.
Holding throughout (assay): inhibition of tumour cell growth, NCI panel, 48 h

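A five-concentration, 48-hour dose response in 96-well plates underlies each endpoint, interpolated linearly between surrounding concentrations. GI50 is the concentration that inhibits growth by half. TGI marks complete inhibition of growth.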

As for `COc1ccc(-c2ccc(C3CC(c4ccc(O)cc4)=NN3)o2)c([N+](=O)[O-])c1` (stereo not given), the GI50 in the test with HCT-116 colon was 20.1 µM; in the test with HOP-62 NSCLC, 34 µM; in the test with OVCAR-8 ovarian, 42.8 µM; with U251 CNS, 19 µM; in the test on RXF 393 renal, 23.7 µM; with SF-295 CNS it was 29.9 µM. In addition, the GI50 with NCI-H460 lung is 21.1 µM. For the same compound, the TGI with HCT-116 colon, in the test on HOP-62 NSCLC, in the test on OVCAR-8 ovarian, in the test on U251 CNS, in the test on RXF 393 renal and in the test on SF-295 CNS was more than 100 µM throughout. In addition, the TGI in the test with NCI-H460 lung came out at 81.8 µM.

As for `COc1ccc2[nH]cc(CCNC(C)=O)c2c1`, the TGI in the test with SNB-75 CNS, in the test on HCT-116 colon, in the test with HOP-62 NSCLC, in the test on OVCAR-8 ovarian, in the test with U251 CNS and in the test on UACC-257 melanoma was more than 100 µM in each case. In addition, the TGI in the test with RXF 393 renal, with SF-295 CNS and with NCI-H460 lung was more than 100 µM throughout.

On to `Oc1ccc2ccccc2c1C=NCCCN=Cc1c(O)ccc2ccccc12`, for which the GI50 in the test with HCT-116 colon was 10 µM; in the test on HOP-62 NSCLC, 22.6 µM; with OVCAR-8 ovarian, 32.4 µM; in the test on U251 CNS, 3.8 µM; with UACC-257 melanoma, 21.7 µM; in the test on RXF 393 renal, 21.8 µM. Besides, the GI50 in the test with SF-295 CNS is 9.96 µM; with NCI-H460 lung it was 9.35 µM. The TGI in the test with HCT-116 colon is 31.4 µM; in the test on HOP-62 NSCLC it was 47.4 µM; in the test with OVCAR-8 ovarian it was more than 100 µM; in the test on U251 CNS it was 15.2 µM; with UACC-257 melanoma, more than 100 µM; in the test on RXF 393 renal, 86.2 µM. For the same compound, the TGI in the test with SF-295 CNS is 42.1 µM; with NCI-H460 lung, more than 100 µM.

Consider `CC(O)C1OC(O)C2OC(C)(C)OC12` (stereo not given), for which the TGI with SNB-75 CNS, in the test with HCT-116 colon, in the test on HOP-62 NSCLC, with OVCAR-8 ovarian, in the test on U251 CNS and in the test with SR leukemia was more than 100 µM in each case. Also, the TGI with UACC-257 melanoma, in the test on SF-295 CNS and in the test with NCI-H460 lung was more than 100 µM in each case.

Take `O=C(Cc1nc2ccccc2s1)C(=O)Nc1ccc(Cl)cc1`: the TGI in the test on SNB-75 CNS, in the test with HCT-116 colon, in the test with HOP-62 NSCLC, in the test on OVCAR-8 ovarian, in the test on U251 CNS and in the test with UACC-257 melanoma was more than 100 µM in each case. The TGI in the test on SF-295 CNS and with NCI-H460 lung was more than 100 µM each time.

As to `CCCCCCCCCCCCCS(=O)(=O)O`, the TGI in the test with SNB-75 CNS, in the test on HCT-116 colon, with HOP-62 NSCLC, in the test with OVCAR-8 ovarian, with U251 CNS and with UACC-257 melanoma was more than 100 µM each time. In addition, the TGI in the test on RXF 393 renal, with SF-295 CNS and in the test on NCI-H460 lung was more than 100 µM throughout.

For the compound `O=C(Nc1ccc(S(=O)(=O)Nc2nccs2)cc1)c1cccnc1Nc1cccc(Cl)c1`, the GI50 in the test with SNB-75 CNS is 9.43 µM; in the test on HCT-116 colon, 12.2 µM; in the test on HOP-62 NSCLC, 16.2 µM; in the test on OVCAR-8 ovarian, 18 µM; with U251 CNS, 13.2 µM; with UACC-257 melanoma it was 18.8 µM. Further, the values for the GI50 in the test with RXF 393 renal, with SF-295 CNS and with NCI-H460 lung were 14.4 µM, 16.5 µM and 16 µM, respectively. The TGI with SNB-75 CNS was determined as 51.3 µM; with HCT-116 colon, 25.2 µM; in the test with HOP-62 NSCLC, 31.3 µM; in the test with OVCAR-8 ovarian it was 48.4 µM; in the test with U251 CNS, 26.1 µM; in the test on UACC-257 melanoma, 43.6 µM. In addition, the TGI in the test with RXF 393 renal turned out to be 33.4 µM; in the test with SF-295 CNS it was 43.5 µM; in the test with NCI-H460 lung, 32.6 µM.

On to `CC(=O)Nc1ccc(/C=C(\NC(=O)c2ccccc2)c2nc3ccc4c(c3[nH]2)C(=O)c2ccccc2C4=O)cc1`, for which the TGI was 61.5 µM with SNB-75 CNS; more than 100 µM in the test on HCT-116 colon; more than 100 µM with HOP-62 NSCLC; more than 100 µM in the test on OVCAR-8 ovarian; more than 100 µM with U251 CNS; more than 100 µM in the test on UACC-257 melanoma. Further, the TGI in the test with RXF 393 renal is 49.1 µM; in the test on SF-295 CNS it was more than 100 µM.

For `CC(=O)N1CCC2(C=Nc3ccccc32)CC1`, the TGI with SNB-75 CNS, with HCT-116 colon, in the test with HOP-62 NSCLC, with OVCAR-8 ovarian, in the test with U251 CNS and with UACC-257 melanoma was more than 100 µM in each case. The TGI with SF-295 CNS and in the test with NCI-H460 lung was more than 100 µM each time.

For `CC1=C(C)C(=O)c2c(c(C(=O)c3ccccc3)c3nc4ccccc4n3c2C)C1=O`, the GI50 in the test with SNB-75 CNS is 15.8 µM; with HCT-116 colon, 87.2 µM; in the test on HOP-62 NSCLC, 23.4 µM; in the test with OVCAR-8 ovarian, 39.7 µM; in the test on U251 CNS it was 27.5 µM; in the test with SR leukemia, more than 100 µM. For the same compound, the results for the GI50 in the test with UACC-257 melanoma, in the test with SF-295 CNS and in the test with NCI-H460 lung were 95 µM, 38.8 µM and 63.3 µM, respectively. Besides, the TGI in the test on SNB-75 CNS was 40.3 µM; in the test with HCT-116 colon, more than 100 µM; in the test on HOP-62 NSCLC, 57.3 µM; in the test on OVCAR-8 ovarian, more than 100 µM; with U251 CNS, 79.4 µM; in the test on SR leukemia it was more than 100 µM. The TGI in the test on UACC-257 melanoma, with SF-295 CNS and in the test on NCI-H460 lung was more than 100 µM throughout.

Turning to `C/C(=N\NC(=S)N1CCCCCC1)c1nccnc1C`, the TGI is 21.9 µM with SNB-75 CNS; more than 100 µM with HOP-62 NSCLC; more than 100 µM in the test with OVCAR-8 ovarian; more than 100 µM in the test with U251 CNS; 1.77 µM with UACC-257 melanoma; 7.06 µM with RXF 393 renal. Also, the TGI in the test on SF-295 CNS came out at 16.6 µM.

For `Cn1ncc(=S)[nH]c1=S`, the TGI with SNB-75 CNS, in the test on HCT-116 colon, with HOP-62 NSCLC, in the test on OVCAR-8 ovarian, in the test on U251 CNS and in the test with RXF 393 renal was more than 100 µM throughout. The TGI with SF-295 CNS and with NCI-H460 lung was more than 100 µM throughout.

With `CC(C)C(C(=O)O)N(CC1(O)OCC(O)C(O)C1O)N=O` (stereo not given), the TGI in the test on SNB-75 CNS, with HCT-116 colon, in the test on HOP-62 NSCLC, in the test with OVCAR-8 ovarian, in the test on U251 CNS and in the test on UACC-257 melanoma was more than 100 µM throughout. Moreover, the TGI with RXF 393 renal and with NCI-H460 lung was more than 100 µM throughout.
